Experiments:
[1] = test system: human CD14+ monocytes migrating across human BBB-endothelial cells; assay: In vitro model of the human BBB (Boyden chamber): CD14+ monocyte migration; format: cell-based; settings: human Ninj26-37 peptide 0.4 mM on BBB-ECs 1 h before cells; 24 h migration; vs scramble peptide
Method: In vitro model of the BBB. BBB-ECs grown in primary cultures were used to generate an in vitro model of the human BBB, as published previously (Cayrol et al., Nature Immunol 9(2): 137-45 Epub 2007 Dec. 23). Human BBB-endothelial cells (25×10^3 cells/chamber) were grown in primary culture on 3 μm porous membrane (Becton Dickinson Labware, Franklin Lakes, N.J., USA), coated with 0.5% gelatin (Sigma), in endothelial cell culture media supplemented with 40% ACM, for 4 days to reach confluency. The BBB-endothelial cells were treated with 0.4 mM of scramble peptide (WRGNPGIRWAPH, SEQ ID NO: 12), 0.4 mM of human Ninj26-37 (PARWGWRHGPIN; SEQ ID NO: 5), 10 μg/ml of sheep IgG isotype control or 10 μg/ml of sheep anti-human Ninjurin-1 blocking Ab one hour prior to the addition of the leukocytes. Human ex vivo CD14^+ monocytes, or CD4^+, or CD8^+ lymphocytes were isolated, from consenting healthy donors, as described above. The leukocytes were added to the upper chamber (1×10^6 cells/chamber) and were allowed to migrate across human BBB-endothelial cells for 24 h. The cells that migrated through the BBB-endothelial cells, were recovered from the lower chamber and counted manually. All migration data shown represent at least 3 independent experiments performed in triplicate.

SCI mice = assay: Spinal cord injury (SCI), contusion with Infinite Horizons impactor; format: in vivo, C57BL/6 mice
Method: Immunofluorescent stainings of human and mouse CNS material. Luxol Fast Blue (LFB) and H&E stainings (Wosik et al., 2007) were performed on human and mouse brain tissue specimens obtained from four MS patients (autopsy) and EAE/SCI animals. Sections showing acute demyelinating lesions and active perivascular mononuclear cell infiltration were selected (8 to 12 blocks per MS donor), and compared to normal-appearing white matter from the same donors (8 blocks per donor) and to non-neurological disease controls (3 donors; 9-11 blocks per donor). Mean age was 49±6 years and disease duration ranged from 3 to 23 years. The cause of death was pneumonia (2), urosepsis (1) and barbiturate intoxication (1). […] Fluorescence was visualized on a Leica™ DM6000 B epifluorescent microscope equipped with a DFC480 digital camera (Leica Microsystems, Wetzlar Germany) or on a Leica™ SP5 confocal microscope. Images were acquired using Openlab™ 4.0.4 (Improvision, Waltham, Mass.) and processed and analyzed with Adobe Photoshop™ CS2 (Adobe, Mountain View, Calif.). Numbers of CD11c+ DCs, F4/80+ macrophages and MHC II+ cells in spinal cord were quantified in pictures of 15 random fields of the spinal cord (two mice per treatment group). […]
Spinal cord injury. […] Locomotor recovery was evaluated in an open-field test using the Basso Mouse Scale (BMS) (Basso D. M. et al., (2006). J Neurotrauma. 23(5): 635-59). […]

EAE mice = assay: Experimental autoimmune encephalomyelitis (EAE) induced with MOG35-55/CFA; format: in vivo, C57BL/6 mice
Method: Flow Cytometric analysis of Ninjurin-1 expression. Cells were harvested and resuspended in FACS buffer composed of PBS supplemented with 1% FBS (Biosource-Invitrogen) and 0.1% NaN3 (Sigma). The cells were incubated with HS (Biosource-Invitrogen) to prevent unspecific binding. BBB-endothelial cells and PBMCs were incubated for 1 h at 4° C. with the primary unconjugated monoclonal mouse anti-Ninjurin-1 antibody (20 μg/ml, BD Biosciences), or with the Functional Grade Purified Mouse IgG2a Isotype Control (20 μg/ml, ebioscience, Inc., San Diego, Calif., USA). Cells were then incubated for 30 min at 4° C. with an allophycocyanin (APC)-conjugated goat anti-mouse Ig (2 μg/ml, BD Biosciences) to detect specific binding. Cells were then counter-stained for 30 min at 4° C. with mouse anti-human conjugated antibodies: Human Leukocyte Antigen (HLA)-ABC, Intracellular cell adhesion molecule (ICAM)-1, CD3, CD4, CD8, CD19, HLA-DR, CD14, CD83, CD123, CD209, CD11c or with corresponding isotype controls (all from BD Biosciences). To study the expression of Ninjurin-1 on murine immune cells, the mouse monoclonal anti-Ninjurin-1 antibody was biotinylated, to prevent unspecific binding of the secondary antibody. A buffer exchange was performed with a Slide-A-Lyzer® Dialysis Cassette (3.5-20K Cassettes, Thermo Scientific, Rockford, Ill., USA) to remove glycerol and bovine serum albumin (BSA) from the antibody solution using Melon™ Gel IgG Spin Purification Kit. Biotin was added using the EZ-Link® Micro NHS-PEO4-Biotinylation kit according to the manufacturer's instructions (Thermo Scientific). Murine peripheral blood or CNS mononuclear cells were incubated for 1 h at 4° C. with the primary biotinylated monoclonal mouse anti-Ninjurin-1 antibody (5 μg/ml, BD Biosciences), or with the Biotin-conjugated IgG2a, K isotype control (5 μg/ml, ebioscience). Cells were then incubated for 30 min at 4° C. with secondary antibody […]—APC (2 μg/ml, BD Biosciences). […] Cells were acquired on a BD LSR™ II Flow cytometer and analyzed using the BD FACSDiva™ software (BD Biosciences). […]

Sequence | migration of CD14+ monocytes across human BBB-endothelial cells [1] | infiltration of Iba1+ and CD11c+ myeloid cells in the spinal cord of SCI animals (SCI mice; murine Ninj26-37 200 μg i.p. b.i.d. day 1 to 7 after injury, day 7 post-injury, vs control peptide) | clinical scores (Basso mouse scale, BMS) after SCI (SCI mice; murine Ninj26-37 200 μg i.p. twice a day, vs control animals) | demyelination (tissue damage) and immune cell infiltration in EAE spinal cord, Luxol fast blue-H&E (EAE mice; Ninj26-37 200 μg i.p. twice daily day 3 to 23, vs control group) | infiltrating MHC II+, F4/80+ and CD11c+ myeloid cells in EAE spinal cord, immunofluorescence and cell counts (EAE mice; Ninj26-37 200 μg i.p. twice daily, 14 days post-immunization, vs control/scramble) | EAE neurological signs, symptoms and clinical scores (EAE mice; mouse Ninj26-37 200 μg i.p. twice a day, day 3 to 23 post-immunization, vs PBS (FIG. 6A) or scramble peptide (FIG. 15))
PARWGWRHGPIN (SEQ ID NO: 5) (listed as Homo sapiens) [human Ninj26-37] | significantly restricts the migration | – | – | – | – | –
PPRWGLRNRPIN (SEQ ID NO: 6) (Peptide corresponding to residues 26 to 37 of human Ninjurin-1) [mouse Ninj26-37] | – | reduced | reduced | reduction in immune cell infiltration and demyelination | reduction of infiltrating | significant reduction of the neurological signs, symptoms and clinical scores
